Source: patent US20240207308A1, “METHOD FOR CULTURING DENDRITIC CELLS” (NANOFAENTECH CO., LTD., priority 2021, published 2024)

How the values were obtained:
Format in all cases: cell-based, mouse
[1] = system: spleen primary dendritic cells; test: ELISA of TNF-α / IL-12p40 secreted by cultured spleen primary dendritic cells; conditions: 24 hours
Method: In FIG. 12, spleen primary dendritic cells were dispensed at 1×10^6/mL and cultured for 24 hours, and then a concentration of TNF-α secreted from these cells in the culture medium was measured. As a result, it was confirmed that the secretion increased in a time-dependent manner. The concentration of TNF-α was measured at 450 nm using an ELISA kit (R&D systems) and a microplate analyzer (Synergy H1, Biotek). However, when dendritic cells were dispensed at 2×10^5/mL, CD86 expression was increased but TNF-α secretion was not increased (results not presented). * indicates statistical significance as P<0.05 or less compared with 3 h.
In FIG. 13, spleen primary dendritic cells were dispensed at 1×10^6/mL and cultured for 24 hours. […] Furthermore, when P4, P5 and P6 peptides were added at a concentration of 200 μg/mL, respectively, the secretion of TNF-α was not inhibited.
Therefore, it could be seen that fibronectin has a disadvantage of inhibiting the activation by stimulants although can maintain the inactivation of spleen dendritic cells. * indicates statistical significance as P<0.05 or less compared to -LPS.
In FIG. 27, an ELISA kit (R&D systems) was used to measure the concentration of TNF-α secreted into the culture medium when spleen primary dendritic cells were dispensed at 2×10^5/mL and cultured for 24 hours. The concentration was determined at 450 nm by a microplate analyzer (Synergy H1, Biotek).

[2] = system: spleen dendritic cells; test: CD86 expression of spleen dendritic cells after immunostimulant (LPS or poly (I:C)), flow cytometry
Method: In FIG. 14, the expression level of CD86 in spleen primary dendritic cells cultured for 24 hours was measured similarly to the expression level of CD86 increased when E. coli LPS as an activation-inducing agent was used for treatment at a concentration of 1 μg/mL. […] CD86 expression of spleen dendritic cells cultured with addition of fibronectin was not increased even when 1 μg/mL LPS was treated.
In FIG. 20, compared to LPS binding to Toll-like receptor-4 of immune cells and inflammatory cells including dendritic cells, when poly (I:C) (polyinosinic:polycytidylic acid), which is similar to double-stranded RNA in terms of structure and is known as an immunostimulant that binds to Toll-like receptor-3, was administered at a concentration of 50 μg/mL, the increase in the expression of CD86 in spleen dendritic cells was inhibited when cultured with addition of fibronectin.

[3] = system: spleen dendritic cells; test: Distribution / clustering of cultured spleen dendritic cells by confocal microscope (DIC); conditions: 200 μg/mL added, dendritic cells 2×10^5/mL, cultured 6 hours
Method: Mouse spleen dendritic cells were obtained by adding EDTA-BSS (Balanced Salt Solution) buffer and collagenase solution (DMEM containing 100 units of collagenase type IV, medium containing low glucose) to spleens of female C57BL/6 mice and cutting it with surgical scissors, mixing the same with 6 mL of collagenase treatment solution, and incubating the mixture for 30 minutes. The separated whole spleen tissue was filtered using a 70 μm cell strainer (Falcon), followed by centrifugation at 1800 rpm for 5 minutes thus to separate the cells. Red blood cells were removed by adding red blood cell lysis buffer (Sigma-Aldrich) to the cells and washed twice with RPMI-1640 medium containing 10% fetal bovine serum (FBS). Dendritic cells were reacted with CD11c^+ antibody-bound microbeads and isolated using CD11c Microbeads Ultrapure ([…] Biotec, USA). In FIG. 1, primary dendritic cells isolated from the spleen were dispensed in a 48-well plate and cultured for 24 hours in a cell chamber maintained at 37° C. and 5% CO2, and the extent of clustering in which cells were distributed or gathered into single cells was evaluated. […] The number of single cells and intercellular clusters was measured using ImageJ software (NIH, Bethesda). * indicates statistical significance as P<0.05 or less compared with 0 h. […]

In the case of fibronectin, the “secretion of TNF-α and IL-12p40” value ([1]; 1 μg/mL LPS) is reported as “did not produce these cytokines”, the “secretion of TNF-α” value ([1]; cells 1×10^6/mL, no stimulant) is reported as “hardly measured” and the TNF-α secretion ([1]; cells 2×10^5/mL, without LPS) is reported as “hardly occurred”. The “expression of CD86 by LPS stimulation” value ([2]; cultured 24 hours with the substance, 1 μg/mL LPS) was “not increased”, the “increase in the expression of CD86 by poly (I:C)” value ([2]; poly (I:C) 50 μg/mL, 24 hours, peptides 200 μg/mL each) was “inhibited” and the “cell aggregation (distribution of cells)” value [3] was “significantly reduced”.
